Test results reported in patent publication US20050112573A1, “Method of detecting toxic substance” (priority 2001, published 2005).

System: yeast genes (level of expressed mRNA)
Test: DNA chip analysis of expressed mRNA of yeast genes after 2 h culture with a toxic chemical substance
Assay type: cell-based, Saccharomyces cerevisiae S288C
Description: Yeast (Saccharomyces cerevtisiae S288C (α SUC2mal mel gap2 CUP1)) were cultured at 25° C. on YPD medium (yeast extract 1%, polypepton 2%, glucose 2%). One of toxic chemical substances was added to the cell at logarithmic growth phase, and the cell was further cultured for two hours. Cell was cultured without any chemical substance in the same condition, and was used as control. Concentrations of the chemical substances were defined to inhibit the growth of the yeast but not lead to death.
After the completion of cultivation, the culture was centrifuged to collect the cells. To the cells, sodium acetate buffer (50 mM sodium acetate, 10 mM EDTA, 1% SDS) was added, and the mixture was shaken at 65° C. for five minutes, followed by returning to room temperature, and obtaining the supernatant, which procedure was repeated two times. To the supernatant, ½ amount of a solution of phenol/chloroform was added, and the mixture was centrifuged to give a supernatant, which was added with an equal amount of chloroform, and the mixture was centrifuged to give a supernatant. To the supernatant, an equal amount of isopropanol containing 0.3 M sodium acetate was added, and the mixture was allowed to stand at room temperature for 30 minutes, after which the mixture was centrifuged to give a sediment of the whole RNAs. Seventy % ethanol was added to the sediment, and the mixture was again centrifuged to give a sediment, which was then dried and dissolved in water. mRNA was isolated from the whole RNAs as followings. In view of the fact that a poly A chain is attached to the 3′ terminus of mRNA, a polynucleotide having a poly T structure which was immobilized on the surface of latex beads was used to trap the mRNA, and then the mRNA was washed and eluted with spine column (Oligotex-dT30<Super>mRNA Purification Kit, Takara). Reverse transcription of the mRNA was conducted with a reverse transcriptase (Super Script II Reverse Transcriptase; catalogue No. 18064-014, GibcoBRL) using fluorescence-labeled nucleotides to give cDNAs that were introduced with Cy3-dUTP or Cy5-dUTP during the reverse transcription.
The labeled cDNAs were dissolved in TE buffer (10 mM Tris-HCl/1 mM EDTA, pH8.0), and the solution was dropped on the DNA chip containing the whole genes of yeast (DNA Chip Research Inc. Japan) so that the cDNAs were hybridized on the DNA chip at 65° C. for over 12 hours. The fluoresces intensity of the DNA chip was read with a scanner, and the ratio relative to the fluorescence intensity resulting from the absence of chemical substance was estimated as the following, which is shown in Tables 1 to 9: [formula]
In the Tables, “Intensity” indicated in the rightmost column is a value of the level of expressed mRNA of each gene in control cells as divided by the average level of the expressions of the whole genes.

O=[N+]([O-])c1cc[n+]([O-])c2ccccc12 [(5), 4-nitroquinolin-N-oxide]
The level of expressed mRNA in the presence of chemical substance/The level of expressed mRNA in the absence of chemical substance (yeast gene YKL013C): 1.9
The level of expressed mRNA in the presence of chemical substance/The level of expressed mRNA in the absence of chemical substance (yeast gene YKL039W): 0.7
The level of expressed mRNA in the presence of chemical substance/The level of expressed mRNA in the absence of chemical substance (yeast gene YKL041W): 1.3
The level of expressed mRNA in the presence of chemical substance/The level of expressed mRNA in the absence of chemical substance (yeast gene YKL096W): 0.6
The level of expressed mRNA in the presence of chemical substance/The level of expressed mRNA in the absence of chemical substance (yeast gene YKL139W): 2.8
The level of expressed mRNA in the presence of chemical substance/The level of expressed mRNA in the absence of chemical substance (yeast gene YKL165C): 0.9
The level of expressed mRNA in the presence of chemical substance/The level of expressed mRNA in the absence of chemical substance (yeast gene YKL193C): 1.1
The level of expressed mRNA in the presence of chemical substance/The level of expressed mRNA in the absence of chemical substance (yeast gene YLR120C): 1.1
The level of expressed mRNA in the presence of chemical substance/The level of expressed mRNA in the absence of chemical substance (yeast gene YLR136C): 1.6
The level of expressed mRNA in the presence of chemical substance/The level of expressed mRNA in the absence of chemical substance (yeast gene YLR178C): 1.0
The level of expressed mRNA in the presence of chemical substance/The level of expressed mRNA in the absence of chemical substance (yeast gene YLR250W): 1.4
The level of expressed mRNA in the presence of chemical substance/The level of expressed mRNA in the absence of chemical substance (yeast gene YLR327C): 1.3
The level of expressed mRNA in the presence of chemical substance/The level of expressed mRNA in the absence of chemical substance (yeast gene YLR356W): 1.1
The level of expressed mRNA in the presence of chemical substance/The level of expressed mRNA in the absence of chemical substance (yeast gene YLR362W): 1.5
The level of expressed mRNA in the presence of chemical substance/The level of expressed mRNA in the absence of chemical substance (yeast gene YLR391W): 1.2
The level of expressed mRNA in the presence of chemical substance/The level of expressed mRNA in the absence of chemical substance (yeast gene YLR429W): 1.4
The level of expressed mRNA in the presence of chemical substance/The level of expressed mRNA in the absence of chemical substance (yeast gene YMR004W): 1.0
The level of expressed mRNA in the presence of chemical substance/The level of expressed mRNA in the absence of chemical substance (yeast gene YMR094W): 0.9
The level of expressed mRNA in the presence of chemical substance/The level of expressed mRNA in the absence of chemical substance (yeast gene YMR104C): 0.7
The level of expressed mRNA in the presence of chemical substance/The level of expressed mRNA in the absence of chemical substance (yeast gene YMR219W): 1.6
The level of expressed mRNA in the presence of chemical substance/The level of expressed mRNA in the absence of chemical substance (yeast gene YMR226C): 0.9
The level of expressed mRNA in the presence of chemical substance/The level of expressed mRNA in the absence of chemical substance (yeast gene YMR275C): 0.7
The level of expressed mRNA in the presence of chemical substance/The level of expressed mRNA in the absence of chemical substance (yeast gene YMR276W): 1.3
The level of expressed mRNA in the presence of chemical substance/The level of expressed mRNA in the absence of chemical substance (yeast gene YNL006W): 0.9
The level of expressed mRNA in the presence of chemical substance/The level of expressed mRNA in the absence of chemical substance (yeast gene YNL007C): 1.2
The level of expressed mRNA in the presence of chemical substance/The level of expressed mRNA in the absence of chemical substance (yeast gene YNL093W): 1.2
The level of expressed mRNA in the presence of chemical substance/The level of expressed mRNA in the absence of chemical substance (yeast gene YNL333W): 1.5
The level of expressed mRNA in the presence of chemical substance/The level of expressed mRNA in the absence of chemical substance (yeast gene YNR010W): 1.8
The level of expressed mRNA in the presence of chemical substance/The level of expressed mRNA in the absence of chemical substance (yeast gene YNR069C): 1.4
The level of expressed mRNA in the presence of chemical substance/The level of expressed mRNA in the absence of chemical substance (yeast gene YOL013C): 0.7
The level of expressed mRNA in the presence of chemical substance/The level of expressed mRNA in the absence of chemical substance (yeast gene YOL164W): 1.6
The level of expressed mRNA in the presence of chemical substance/The level of expressed mRNA in the absence of chemical substance (yeast gene YOR036W): 1.1
The level of expressed mRNA in the presence of chemical substance/The level of expressed mRNA in the absence of chemical substance (yeast gene YOR117W): 1.2
The level of expressed mRNA in the presence of chemical substance/The level of expressed mRNA in the absence of chemical substance (yeast gene YOR124C): 1.1
The level of expressed mRNA in the presence of chemical substance/The level of expressed mRNA in the absence of chemical substance (yeast gene YOR132W): 1.1
The level of expressed mRNA in the presence of chemical substance/The level of expressed mRNA in the absence of chemical substance (yeast gene YOR157C): 0.7
The level of expressed mRNA in the presence of chemical substance/The level of expressed mRNA in the absence of chemical substance (yeast gene YOR181W): 0.7
The level of expressed mRNA in the presence of chemical substance/The level of expressed mRNA in the absence of chemical substance (yeast gene YOR185C): 1.2
The level of expressed mRNA in the presence of chemical substance/The level of expressed mRNA in the absence of chemical substance (yeast gene YOR198C): 0.8
The level of expressed mRNA in the presence of chemical substance/The level of expressed mRNA in the absence of chemical substance (yeast gene YOR259C): 2.0
The level of expressed mRNA in the presence of chemical substance/The level of expressed mRNA in the absence of chemical substance (yeast gene YOR261C): 1.5
The level of expressed mRNA in the presence of chemical substance/The level of expressed mRNA in the absence of chemical substance (yeast gene YOR288C): 1.1
The level of expressed mRNA in the presence of chemical substance/The level of expressed mRNA in the absence of chemical substance (yeast gene YOR355W): 1.0
The level of expressed mRNA in the presence of chemical substance/The level of expressed mRNA in the absence of chemical substance (yeast gene YOR383C): 0.9
The level of expressed mRNA in the presence of chemical substance/The level of expressed mRNA in the absence of chemical substance (yeast gene YPL089C): 1.4
The level of expressed mRNA in the presence of chemical substance/The level of expressed mRNA in the absence of chemical substance (yeast gene YPL109C): 1.2
The level of expressed mRNA in the presence of chemical substance/The level of expressed mRNA in the absence of chemical substance (yeast gene YPL149W): 0.8
The level of expressed mRNA in the presence of chemical substance/The level of expressed mRNA in the absence of chemical substance (yeast gene YPL154C): 1.2
The level of expressed mRNA in the presence of chemical substance/The level of expressed mRNA in the absence of chemical substance (yeast gene YPR103W): 1.7
The level of expressed mRNA in the presence of chemical substance/The level of expressed mRNA in the absence of chemical substance (yeast gene YPR108W): 1.3
